Our source for the GI50 and MIC values is ChEMBL document CHEMBL1157947, “Antineoplastic Agents. 554. The manitoba bacterium Streptomyces sp” (2006).

What all share (type): functional
Assay [1] deals with P388. The assay can be described thus: Growth inhibition of mouse P388 cells.
Assay [2] relates to BXPC-3. Nature of the assay: Growth inhibition of human BXPC3 cells.
Assay [3] deals with MCF7. Nature of the assay: Growth inhibition of human MCF7 cells.
The subject of assay [4] is SF-268. The assay can be described thus: Growth inhibition of human SF268 cells.
Assay [5] concerns NCI-H460. Nature of the assay: Growth inhibition of human NCI-H460 cells.
Assay [6] has as its system KM-20L2. The assay can be described thus: Growth inhibition of human KM20L2 cells.
Assay [7] relates to DU-145. The assay can be described thus: Growth inhibition of human DU145 cells.
Assay [8] deals with Streptococcus pneumoniae. The assay can be described thus: Antibacterial activity against Streptococcus pneumoniae ATCC 6303 by broth microdilution method.
Assay [9] relates to Neisseria gonorrhoeae. Nature of the assay: Antibacterial activity against Neisseria gonorrhoeae ATCC 49226 by broth microdilution method.
In assay [10] the test system is Micrococcus luteus. The assay can be described thus: Antibacterial activity against Micrococcus luteus by broth microdilution method. For orientation: Dilution methods test growth across graded concentrations, often in twofold steps.
The test system of assay [11] is Stenotrophomonas maltophilia. The assay can be described thus: Antibacterial activity against Stenotrophomonas maltophilia by broth microdilution method.
Assay [12] concerns Staphylococcus aureus. The assay can be described thus: Antibacterial activity against Staphylococcus aureus by broth microdilution method.
The test system of assay [13] is Escherichia coli. The assay can be described thus: Antibacterial activity against sEscherichia coli by broth microdilution method.
Assay [14] relates to Enterobacter cloacae. The assay can be described thus: Antibacterial activity against sEnterobacter cloacae by broth microdilution method.
In assay [15] the test system is Enterococcus faecalis. The assay can be described thus: Antibacterial activity against sEnterococcus faecalis by broth microdilution method.
For assay [16], the system named is Candida albicans. Nature of the assay: Antifungal activity against Candida albicans by broth microdilution method.
Assay [17] concerns Cryptococcus neoformans. Nature of the assay: […] activity against Cryptococcus neoformans by broth microdilution method.

Structures are written as SMILES. In brackets after ≈: the same amount, converted by molar mass. Where only a bound is given, the exact number is not on record here.

A word on the GI50: it is the concentration giving 50% growth inhibition. As to `O=C(CO)c1c[nH]c2ccccc12`, the GI50 in assay [1] was determined as 2.8 µg/mL (≈ 16 µM); in assay [2], 0.31 µg/mL (≈ 1.77 µM); in [3] it was 0.82 µg/mL (≈ 4.68 µM); in assay [4], 1.8 µg/mL (≈ 10.3 µM); in assay [5], 0.17 µg/mL (≈ 0.97 µM); in [6], 1.2 µg/mL (≈ 6.85 µM). This molecule displayed a 50% growth inhibitory concentration (GI50) in [7] of 0.21 µg/mL (≈ 1.2 µM).

In general, MIC refers to the smallest concentration in the dilution series that meets the test's criterion for growth inhibition. A lower MIC goes with a more susceptible organism. For the molecule `Cc1cc(=O)n(C)c2c1C(=O)c1c(C)cc(=O)n(C)c1C2=O` [DIAZAANTHRAQUINONE], the concentration for 50% growth inhibition (GI50) was found to be 1.4 µg/mL (≈ 4.69 µM) in assay [1]; 0.54 µg/mL (≈ 1.81 µM) in assay [2]; 0.49 µg/mL (≈ 1.64 µM) in assay [3]; 1.3 µg/mL (≈ 4.36 µM) in assay [4]; 1.2 µg/mL (≈ 4.02 µM) in [5]; 0.32 µg/mL (≈ 1.07 µM) in assay [6]. In [7], the GI50 stood at 1 µg/mL (≈ 3.35 µM). The MIC is 16 µg/mL (≈ 53.6 µM) in assay [8]; 4 µg/mL (≈ 13.4 µM) in assay [9]; above 64 µg/mL in assay [10]; above 64 µg/mL in assay [11]; above 64 µg/mL in [12]; above 64 µg/mL in assay [13]. The MIC in [14], in assay [15], in [16] and in [17] was above 64 µg/mL each time.
